Reference: the NIST ThermoML archive (doi:10.1021/je100679s)
± gives the expanded uncertainty stated by the source.

Experiments:
[1] = 101 kPa, Liquid; for electrical conductivity: DDS-307 conductivity meter
[2] = xn = mol fraction of the nth substance listed; details: 101 kPa, Liquid, x2 = 0

SMILES | mass density ([1]; 293.15 K) | mass density ([1]; 298.15 K) | mass density ([1]; 303.15 K) | mass density ([1]; 308.15 K) | mass density ([1]; 313.15 K) | mass density ([1]; 318.15 K) | mass density ([1]; 323.15 K) | mass density ([1]; 328.15 K) | mass density ([1]; 333.15 K) | further results
CCCCCCn1cc[n+](C)c1C.O=S(=O)([N-]S(=O)(=O)C(F)(F)F)C(F)(F)F | 1358.19 ± 2.9 kg/m3 | 1353.11 ± 2.8 kg/m3 | 1348.71 ± 2.8 kg/m3 | 1344.29 ± 2.8 kg/m3 | 1339.88 ± 2.8 kg/m3 | 1335.47 ± 2.7 kg/m3 | 1331.06 ± 2.7 kg/m3 | 1326.65 ± 2.7 kg/m3 | 1322.24 ± 2.7 kg/m3 | electrical conductivity ([1]; 298.15 K): 0.108 ± 0.0068 S/m; electrical conductivity ([1]; 303.15 K): 0.158 ± 0.0097 S/m; electrical conductivity ([1]; 308.15 K): 0.213 ± 0.013 S/m; electrical conductivity ([1]; 313.15 K): 0.271 ± 0.016 S/m; electrical conductivity ([1]; 318.15 K): 0.319 ± 0.019 S/m; electrical conductivity ([1]; 323.15 K): 0.369 ± 0.022 S/m; electrical conductivity ([1]; 328.15 K): 0.426 ± 0.026 S/m; electrical conductivity ([1]; 333.15 K): 0.48 ± 0.029 S/m
COC(=O)OC [dimethyl carbonate] | 1069.92 ± 0.69 kg/m3 | 1063.34 ± 0.67 kg/m3 | 1056.72 ± 0.65 kg/m3 | 1050.07 ± 0.62 kg/m3 | 1043.39 ± 0.6 kg/m3 | 1036.69 ± 0.57 kg/m3 | 1029.94 ± 0.55 kg/m3 | 1023.25 ± 0.53 kg/m3 | 1016.32 ± 0.5 kg/m3 | 
COC(=O)OC [dimethyl carbonate] + CCCCCCn1cc[n+](C)c1C.O=S(=O)([N-]S(=O)(=O)C(F)(F)F)C(F)(F)F |  |  |  |  |  |  |  |  |  | mass density ([2]; 293.15 K): 1069.92 ± 0.69 kg/m3; mass density ([2]; 298.15 K): 1063.34 ± 0.67 kg/m3; mass density ([2]; 303.15 K): 1056.72 ± 0.65 kg/m3; mass density ([2]; 308.15 K): 1050.07 ± 0.62 kg/m3; mass density ([2]; 313.15 K): 1043.39 ± 0.6 kg/m3; mass density ([2]; 318.15 K): 1036.69 ± 0.57 kg/m3; mass density ([2]; 323.15 K): 1029.94 ± 0.55 kg/m3; mass density ([2]; 328.15 K): 1023.25 ± 0.53 kg/m3; mass density ([2]; 333.15 K): 1016.32 ± 0.5 kg/m3
